Results from patent US4452778A, “Synergistic antibacterial compositions and method of treatment of infections caused by multiple antibiotic-resistant organisms” (Eli Lilly and Company, priority 1981, dated 1984).
Values after ≈ are worked out from the molar mass of the structure shown. Where a name gives a salt, the structure may show the parent alone. Read-outs that look alike come from different tables or passages of the source.

Columns and labels:
Pseudomonas maltophilia = assay: Checkerboard broth dilution synergy study (mic); format: cell-based; details: Table III; for MIC: Stenotrophomonas maltophilia, read-out: mic, drug alone
Proteus rettgeri = assay: Checkerboard broth dilution synergy study (mic); format: cell-based; details: Table III; for MIC: Providencia rettgeri, read-out: mic, drug alone
E. cloacae = assay: Checkerboard broth dilution synergy study (mic); format: cell-based; details: Table III; for MIC: Enterobacter cloacae, read-out: mic, drug alone
[1] = cited from earlier work; for average peak serum concentration: 1 hour
Pseudomonas pseudomallei = assay: microbe, parasite or virus in culture; format: cell-based
Acinetobacter sp. = assay: Checkerboard broth dilution synergy study (mic); format: cell-based; details: Table III; for MIC: Acinetobacter, read-out: mic, drug alone
Pseudomonas aeruginosa = assay: Checkerboard broth dilution synergy study (mic); format: cell-based; details: Table III; for MIC: Pseudomonas aeruginosa, read-out: mic, drug alone
Klebsiella pneumoniae = assay: Checkerboard broth dilution synergy study (mic); format: cell-based; details: Table III; for MIC: Klebsiella pneumoniae, read-out: mic, drug alone
Serratia marcescens = assay: Checkerboard broth dilution synergy study (mic); format: cell-based; details: Table III; for MIC: Serratia marcescens, read-out: mic, drug alone
[2] = 1 mg/kg intramuscular; cited from earlier work

NCC[C@H](O)C(=O)N[C@@H]1C[C@H](N)[C@@H](O[C@H]2O[C@H](CN)[C@@H](O)[C@H](O)[C@H]2O)[C@H](O)[C@H]1O[C@H]1O[C@H](CO)[C@@H](O)[C@H](N)[C@H]1O [amikacin]
MIC (Pseudomonas maltophilia; isolate 10): > 64 µg/mL
MIC (Pseudomonas maltophilia; isolate 505): > 64 µg/mL
mic of each drug in combination I + A (Pseudomonas maltophilia; isolate 10): < 0.5 µg/mL
mic of each drug in combination I + A (Pseudomonas maltophilia; isolate 505): 1 µg/mL
MIC (Proteus rettgeri; isolate 53): 8 µg/mL
MIC (Proteus rettgeri; isolate 136-1): 4 µg/mL
MIC (Proteus rettgeri; isolate 768): 16 µg/mL
MIC (Proteus rettgeri; isolate 997): 8 µg/mL
MIC (Proteus rettgeri; isolate 1422): 4 µg/mL
mic of each drug in combination I + A (Proteus rettgeri; isolate 53): < 0.5 µg/mL
mic of each drug in combination I + A (Proteus rettgeri; isolate 136-1): 1 µg/mL
mic of each drug in combination I + A (Proteus rettgeri; isolate 768): < 0.5 µg/mL
mic of each drug in combination I + A (Proteus rettgeri; isolate 997): < 0.5 µg/mL
mic of each drug in combination I + A (Proteus rettgeri; isolate 1422): 8 µg/mL
MIC (E. cloacae; isolate 228): 2 µg/mL
MIC (E. cloacae; isolate 1253): 1 µg/mL
MIC (E. cloacae; isolate 1296): 4 µg/mL
MIC (E. cloacae; isolate 1415): 8 µg/mL
MIC (E. cloacae; isolate McQuinn): 32 µg/mL
mic of each drug in combination I + A (E. cloacae; isolate 228): < 0.5 µg/mL
mic of each drug in combination I + A (E. cloacae; isolate 1253): < 0.5 µg/mL
mic of each drug in combination I + A (E. cloacae; isolate 1296): 0.5 µg/mL
mic of each drug in combination I + A (E. cloacae; isolate 1415): < 0.5 µg/mL
mic of each drug in combination I + A (E. cloacae; isolate McQuinn): 2 µg/mL
average peak serum concentration ([1]; 250 mg (3.7 mg/kg) intramuscular): about 12 mcg/ml
serum level ([1]; 250 mg (3.7 mg/kg) intramuscular, 10 hours): about 0.3 mcg/ml
average peak serum concentration ([1]; 375 mg (5 mg/kg) intramuscular): ~16 µg/mL
serum level ([1]; 375 mg (5 mg/kg) intramuscular, 10 hours): ~1200 ng/mL
serum level ([1]; 500 mg (7.5 mg/kg) infusion over 30 minutes, 30 minutes post-infusion): 24000 ng/mL
serum level ([1]; 500 mg (7.5 mg/kg) infusion over 30 minutes, 1 hour post-infusion): 18000 ng/mL
serum level ([1]; 500 mg (7.5 mg/kg) infusion over 30 minutes, 10 hours post-infusion): 750 ng/mL
mean peak serum concentration ([1]; 500 mg (7.5 mg/kg) infusion over 30 minutes, end of infusion): 38 µg/mL
average peak serum concentration ([1]; 500 mg (7.5 mg/kg) intramuscular): ~21 µg/mL
serum level ([1]; 500 mg (7.5 mg/kg) intramuscular, 10 hours): ~2100 ng/mL
MIC (Pseudomonas pseudomallei; Burkholderia pseudomallei, read-out: mic, drug alone): 32 µg/mL (≈ 54.6 µM)
mic of each drug in combination I + A (Pseudomonas pseudomallei; Table III, isolate not named): 8 µg/mL
MIC (Acinetobacter sp.; isolate 28-1): 8 µg/mL
MIC (Acinetobacter sp.; isolate 28-2): 4 µg/mL
MIC (Acinetobacter sp.; isolate 106): 2 µg/mL
MIC (Acinetobacter sp.; isolate 107): 8 µg/mL
MIC (Acinetobacter sp.; isolate 109): 4 µg/mL
mic of each drug in combination I + A (Acinetobacter sp.; isolate 28-1): 8 µg/mL
mic of each drug in combination I + A (Acinetobacter sp.; isolate 28-2): < 0.5 µg/mL
mic of each drug in combination I + A (Acinetobacter sp.; isolate 106): < 0.5 µg/mL
mic of each drug in combination I + A (Acinetobacter sp.; isolate 107): 8 µg/mL
mic of each drug in combination I + A (Acinetobacter sp.; isolate 109): < 0.5 µg/mL
MIC (Pseudomonas aeruginosa; isolate 316-2): 16 µg/mL
MIC (Pseudomonas aeruginosa; isolate 362): 16 µg/mL
MIC (Pseudomonas aeruginosa; isolate 363): 32 µg/mL
MIC (Pseudomonas aeruginosa; isolate 610): 1 µg/mL
MIC (Pseudomonas aeruginosa; isolate Brownlee): 16 µg/mL
mic of each drug in combination I + A (Pseudomonas aeruginosa; isolate 316-2): 2 µg/mL
mic of each drug in combination I + A (Pseudomonas aeruginosa; isolate 362): 2 µg/mL
mic of each drug in combination I + A (Pseudomonas aeruginosa; isolate 363): 2 µg/mL
mic of each drug in combination I + A (Pseudomonas aeruginosa; isolate 610): 1 µg/mL
mic of each drug in combination I + A (Pseudomonas aeruginosa; isolate Brownlee): 4 µg/mL
MIC (Klebsiella pneumoniae; isolate 130): 4 µg/mL
MIC (Klebsiella pneumoniae; isolate 214-1): 8 µg/mL
MIC (Klebsiella pneumoniae; isolate 463): 2 µg/mL
MIC (Klebsiella pneumoniae; isolate 938): 4 µg/mL
MIC (Klebsiella pneumoniae; isolate 1231): 4 µg/mL
mic of each drug in combination I + A (Klebsiella pneumoniae; isolate 130): < 0.5 µg/mL
mic of each drug in combination I + A (Klebsiella pneumoniae; isolate 214-1): < 0.5 µg/mL
mic of each drug in combination I + A (Klebsiella pneumoniae; isolate 463): < 0.5 µg/mL
mic of each drug in combination I + A (Klebsiella pneumoniae; isolate 938): < 0.5 µg/mL
mic of each drug in combination I + A (Klebsiella pneumoniae; isolate 1231): 2 µg/mL
MIC (Serratia marcescens; isolate 463-2): 1 µg/mL
MIC (Serratia marcescens; isolate 606): 1 µg/mL
MIC (Serratia marcescens; isolate 1414): 8 µg/mL
MIC (Serratia marcescens; isolate B377): 2 µg/mL
MIC (Serratia marcescens; isolate Ziegler): 4 µg/mL
mic of each drug in combination I + A (Serratia marcescens; isolate 463-2): < 0.5 µg/mL
mic of each drug in combination I + A (Serratia marcescens; isolate 606): < 0.5 µg/mL
mic of each drug in combination I + A (Serratia marcescens; isolate 1414): < 0.5 µg/mL
mic of each drug in combination I + A (Serratia marcescens; isolate B377): < 0.5 µg/mL
mic of each drug in combination I + A (Serratia marcescens; isolate Ziegler): 2 µg/mL

NC[C@H]1O[C@H](O[C@H]2[C@H](O)[C@@H](O[C@H]3O[C@H](CO)[C@@H](O)[C@H](N)[C@H]3O)[C@H](N)C[C@@H]2N)[C@H](N)C[C@@H]1O [tobramycin sulfate]
maximum serum concentrations [2]: about 4 mcg/ml
